This note sets out measurements from ChEMBL document CHEMBL5696442, “Discovery of type II inhibitors of TGFβ-activated kinase 1 (TAK1) and mitogen-activated protein kinase kinase kinase kinase 2 (MAP4K2)” (J Med Chem, 2015).

Test [1] has as its target T1, Serine/threonine-protein kinase TAO2 (Homo sapiens) (UniProt Q9UL54).
T1 sequence (whole entry): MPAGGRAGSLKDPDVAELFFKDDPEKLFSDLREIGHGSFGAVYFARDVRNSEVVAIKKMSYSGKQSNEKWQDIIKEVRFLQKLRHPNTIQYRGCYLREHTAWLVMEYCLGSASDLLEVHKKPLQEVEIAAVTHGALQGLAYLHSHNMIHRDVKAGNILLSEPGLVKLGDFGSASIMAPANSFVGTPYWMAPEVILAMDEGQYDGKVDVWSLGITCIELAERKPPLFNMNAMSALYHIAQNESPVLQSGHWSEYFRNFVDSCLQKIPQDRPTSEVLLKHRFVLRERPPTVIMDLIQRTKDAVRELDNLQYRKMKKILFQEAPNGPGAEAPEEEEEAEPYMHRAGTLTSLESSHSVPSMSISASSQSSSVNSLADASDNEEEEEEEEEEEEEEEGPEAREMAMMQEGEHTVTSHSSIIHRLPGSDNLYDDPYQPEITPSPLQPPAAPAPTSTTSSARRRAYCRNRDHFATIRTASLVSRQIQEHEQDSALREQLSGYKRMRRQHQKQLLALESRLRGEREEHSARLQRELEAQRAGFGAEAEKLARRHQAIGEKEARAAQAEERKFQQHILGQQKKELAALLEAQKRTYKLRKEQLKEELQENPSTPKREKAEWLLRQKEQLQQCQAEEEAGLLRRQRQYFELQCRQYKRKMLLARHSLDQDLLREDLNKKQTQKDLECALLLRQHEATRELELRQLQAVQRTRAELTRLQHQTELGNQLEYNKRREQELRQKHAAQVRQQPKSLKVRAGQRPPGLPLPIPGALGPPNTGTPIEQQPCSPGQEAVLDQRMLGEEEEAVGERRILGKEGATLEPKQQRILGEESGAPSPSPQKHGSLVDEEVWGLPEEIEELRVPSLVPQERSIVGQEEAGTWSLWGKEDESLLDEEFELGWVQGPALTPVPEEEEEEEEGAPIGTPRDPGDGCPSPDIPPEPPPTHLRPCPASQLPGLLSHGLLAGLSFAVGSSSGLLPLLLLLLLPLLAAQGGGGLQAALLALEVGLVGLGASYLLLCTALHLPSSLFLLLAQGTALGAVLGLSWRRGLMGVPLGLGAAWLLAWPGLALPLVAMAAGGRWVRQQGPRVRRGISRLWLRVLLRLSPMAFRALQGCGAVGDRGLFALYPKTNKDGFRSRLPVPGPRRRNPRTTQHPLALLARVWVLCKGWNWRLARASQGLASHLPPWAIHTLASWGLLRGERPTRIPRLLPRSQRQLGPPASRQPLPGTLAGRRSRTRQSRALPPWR
Kind of test: Inhibition of TAO2 Lys2 labeling site in human A-375 cells at 0.05 uM by KiNativ Profiling analysis relative to control. In kind it is cell-based.

For test [2], the target named is Ribosomal protein S6 kinase alpha-1 (Homo sapiens) (UniProt Q15418). In words: Inhibition of RSK1 domain1 ACT labeling site in human A-375 cells at 5 uM by KiNativ Profiling analysis relative to control. In kind it is cell-based.
Test [3] has as its target Tyrosine-protein kinase Lyn (Homo sapiens, UniProt P07948). In words: Inhibition of LYN (unknown origin) at 1 uM by Ambit Kinomescan binding assay relative to control; values are per cent of control.
The target of test [4] is Ephrin type-A receptor 4 (Homo sapiens) (UniProt P54764). In words: Inhibition of EPHA4 (unknown origin) at 1 uM by Ambit Kinomescan binding assay relative to control; values are per cent of control.
Test [5] deals with Vascular endothelial growth factor receptor 3 (Homo sapiens) (UniProt P35916). In words: Inhibition of FLT4 (unknown origin) at 1 uM by Ambit Kinomescan binding assay relative to control; values are per cent of control.
The target of test [6] is Ribosomal protein S6 kinase alpha-1 (Homo sapiens) (UniProt Q15418). Kind of test: Inhibition of N-terminal RPS6KA1 kinase domain 1 (unknown origin) at 10 uM by Ambit Kinomescan binding assay.
Test [7] concerns the target T2, Phosphatidylinositol 5-phosphate 4-kinase type-2 alpha (Homo sapiens) (UniProt P48426).
T2 sequence (whole entry): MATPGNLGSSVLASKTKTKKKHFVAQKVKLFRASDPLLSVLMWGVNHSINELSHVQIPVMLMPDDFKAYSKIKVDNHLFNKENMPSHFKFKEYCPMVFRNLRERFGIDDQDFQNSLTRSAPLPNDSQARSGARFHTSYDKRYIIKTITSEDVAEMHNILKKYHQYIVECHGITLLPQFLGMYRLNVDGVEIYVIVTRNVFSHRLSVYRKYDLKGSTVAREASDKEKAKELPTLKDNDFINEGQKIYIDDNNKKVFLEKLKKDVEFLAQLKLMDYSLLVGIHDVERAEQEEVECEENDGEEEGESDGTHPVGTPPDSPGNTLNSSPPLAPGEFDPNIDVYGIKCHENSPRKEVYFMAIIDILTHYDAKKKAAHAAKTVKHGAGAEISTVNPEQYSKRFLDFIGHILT
Kind of test: Inhibition of PIP5K2A LIP labeling site in human Huh-7 cells at 10 uM by KiNativ Profiling analysis relative to control. In kind it is cell-based.

Test [8] deals with Serine/threonine-protein kinase/endoribonuclease IRE1 (Homo sapiens) (UniProt O75460). In words: Inhibition of IRE1 Lys2 labeling site in human A-375 cells at 0.05 uM by KiNativ Profiling analysis relative to control. In kind it is cell-based.
In test [9] the target is Activin receptor type-1 (Homo sapiens) (UniProt Q04771). Kind of test: Inhibition of ACVR1 (unknown origin) at 10 uM by Ambit Kinomescan binding assay.
The target in test [10] is LIM domain kinase 1 (Homo sapiens) (UniProt P53667). Kind of test: Inhibition of LIMK1 (unknown origin) at 10 uM by Ambit Kinomescan binding assay.
For test [11], the target named is Tyrosine-protein kinase CSK (Homo sapiens, UniProt P41240). In words: Inhibition of CSK ACT labeling site harbouring VSDFGLTKEASSTQDTGK in human Huh-7 cells at 1 uM by KiNativ Profiling analysis relative to control. In kind it is cell-based.
Test [12] addresses T3, Aurora kinase A (Homo sapiens) (UniProt O14965).
T3 sequence (whole entry): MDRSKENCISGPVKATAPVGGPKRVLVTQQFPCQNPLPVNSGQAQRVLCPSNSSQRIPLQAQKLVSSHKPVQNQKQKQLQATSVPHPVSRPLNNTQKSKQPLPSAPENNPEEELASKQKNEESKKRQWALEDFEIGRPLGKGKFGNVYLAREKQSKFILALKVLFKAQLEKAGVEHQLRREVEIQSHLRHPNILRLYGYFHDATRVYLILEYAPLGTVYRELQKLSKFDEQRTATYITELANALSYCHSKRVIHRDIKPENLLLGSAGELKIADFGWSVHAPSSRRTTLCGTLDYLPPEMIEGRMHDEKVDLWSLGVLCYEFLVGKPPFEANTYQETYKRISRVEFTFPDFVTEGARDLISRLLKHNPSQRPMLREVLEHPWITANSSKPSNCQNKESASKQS
In words: Inhibition of AurA ATP labeling site in human Huh-7 cell lysate at 1 uM by KiNativ Profiling analysis relative to control. In kind it is subcellular.

Calls of active or inactive are those of the source. The calls are words filed in the database; no cut-off is given here.

Ribosomal protein S6 kinase alpha-1 (Homo sapiens), sequence (Q15418 whole entry, the tested form may be a part): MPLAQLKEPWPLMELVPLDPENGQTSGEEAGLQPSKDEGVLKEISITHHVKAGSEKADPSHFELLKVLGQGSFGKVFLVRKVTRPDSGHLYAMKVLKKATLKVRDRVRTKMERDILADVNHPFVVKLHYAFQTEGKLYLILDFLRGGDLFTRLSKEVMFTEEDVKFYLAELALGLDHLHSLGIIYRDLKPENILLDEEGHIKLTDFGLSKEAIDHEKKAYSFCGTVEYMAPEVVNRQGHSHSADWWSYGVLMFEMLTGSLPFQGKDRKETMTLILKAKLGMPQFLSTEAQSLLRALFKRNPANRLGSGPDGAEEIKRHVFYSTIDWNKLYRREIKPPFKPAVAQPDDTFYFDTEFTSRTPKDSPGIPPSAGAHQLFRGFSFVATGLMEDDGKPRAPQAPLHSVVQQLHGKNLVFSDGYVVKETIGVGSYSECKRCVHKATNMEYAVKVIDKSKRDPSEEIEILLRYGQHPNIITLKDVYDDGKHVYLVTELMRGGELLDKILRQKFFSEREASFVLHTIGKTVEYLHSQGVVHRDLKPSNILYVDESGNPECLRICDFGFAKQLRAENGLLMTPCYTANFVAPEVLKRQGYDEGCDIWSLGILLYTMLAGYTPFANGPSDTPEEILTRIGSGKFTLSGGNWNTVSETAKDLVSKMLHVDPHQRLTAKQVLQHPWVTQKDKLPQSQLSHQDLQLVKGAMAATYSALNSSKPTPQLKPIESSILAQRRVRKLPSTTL
Activin receptor type-1 (Homo sapiens), sequence (Q04771 whole entry, the tested form may be a part): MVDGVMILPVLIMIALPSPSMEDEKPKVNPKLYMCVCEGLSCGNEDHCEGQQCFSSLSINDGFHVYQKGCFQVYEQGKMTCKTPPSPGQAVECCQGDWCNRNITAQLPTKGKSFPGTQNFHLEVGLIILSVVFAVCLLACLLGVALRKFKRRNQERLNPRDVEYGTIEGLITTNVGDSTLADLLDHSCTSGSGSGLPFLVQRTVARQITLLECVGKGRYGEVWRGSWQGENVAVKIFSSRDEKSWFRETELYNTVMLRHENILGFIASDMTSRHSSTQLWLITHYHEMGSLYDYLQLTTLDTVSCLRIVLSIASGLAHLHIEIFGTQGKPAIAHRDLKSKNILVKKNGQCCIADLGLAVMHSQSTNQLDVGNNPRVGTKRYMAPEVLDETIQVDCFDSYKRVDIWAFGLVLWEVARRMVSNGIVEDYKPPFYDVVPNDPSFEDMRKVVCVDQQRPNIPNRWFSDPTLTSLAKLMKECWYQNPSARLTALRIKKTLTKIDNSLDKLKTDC
Ephrin type-A receptor 4 (Homo sapiens), sequence (P54764 whole entry): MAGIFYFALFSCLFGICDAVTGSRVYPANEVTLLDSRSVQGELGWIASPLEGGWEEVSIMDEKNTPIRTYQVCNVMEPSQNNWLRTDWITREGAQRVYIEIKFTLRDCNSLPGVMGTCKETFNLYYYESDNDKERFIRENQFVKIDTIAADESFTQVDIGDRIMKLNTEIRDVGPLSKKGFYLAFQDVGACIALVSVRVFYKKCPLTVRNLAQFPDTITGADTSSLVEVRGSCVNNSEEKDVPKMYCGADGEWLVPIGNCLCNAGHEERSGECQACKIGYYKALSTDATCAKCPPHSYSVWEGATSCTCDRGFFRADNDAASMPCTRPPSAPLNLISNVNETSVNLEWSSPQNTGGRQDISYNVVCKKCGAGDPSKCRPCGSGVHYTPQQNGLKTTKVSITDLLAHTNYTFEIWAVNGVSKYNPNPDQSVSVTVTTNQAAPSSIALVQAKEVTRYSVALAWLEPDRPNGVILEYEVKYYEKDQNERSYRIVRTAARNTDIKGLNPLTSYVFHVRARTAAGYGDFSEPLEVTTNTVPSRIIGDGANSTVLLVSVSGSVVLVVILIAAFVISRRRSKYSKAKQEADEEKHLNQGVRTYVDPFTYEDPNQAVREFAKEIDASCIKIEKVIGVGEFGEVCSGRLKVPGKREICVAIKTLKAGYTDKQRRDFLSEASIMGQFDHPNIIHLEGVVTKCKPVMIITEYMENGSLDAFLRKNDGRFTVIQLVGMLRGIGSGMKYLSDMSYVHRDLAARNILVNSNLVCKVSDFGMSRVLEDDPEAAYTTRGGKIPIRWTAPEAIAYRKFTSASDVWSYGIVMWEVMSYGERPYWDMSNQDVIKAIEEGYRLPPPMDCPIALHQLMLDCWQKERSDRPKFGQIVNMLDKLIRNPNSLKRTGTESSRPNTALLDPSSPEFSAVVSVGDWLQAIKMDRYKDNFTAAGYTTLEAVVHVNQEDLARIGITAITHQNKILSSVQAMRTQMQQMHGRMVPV
Tyrosine-protein kinase CSK, sequence (P41240 2-450 limits assumed): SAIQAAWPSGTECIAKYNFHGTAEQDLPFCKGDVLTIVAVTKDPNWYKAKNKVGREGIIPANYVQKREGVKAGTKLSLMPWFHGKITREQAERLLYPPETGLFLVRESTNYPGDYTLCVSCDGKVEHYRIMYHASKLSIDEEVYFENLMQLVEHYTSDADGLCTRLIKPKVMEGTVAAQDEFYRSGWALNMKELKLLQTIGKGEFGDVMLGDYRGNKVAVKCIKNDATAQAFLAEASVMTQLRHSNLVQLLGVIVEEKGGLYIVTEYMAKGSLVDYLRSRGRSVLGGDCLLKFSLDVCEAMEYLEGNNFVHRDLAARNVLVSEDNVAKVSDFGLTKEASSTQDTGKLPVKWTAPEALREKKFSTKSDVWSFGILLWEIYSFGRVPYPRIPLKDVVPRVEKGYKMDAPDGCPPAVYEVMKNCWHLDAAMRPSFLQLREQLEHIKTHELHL
LIM domain kinase 1 (Homo sapiens), sequence (P53667 whole entry, looked up, the tested form may be a part): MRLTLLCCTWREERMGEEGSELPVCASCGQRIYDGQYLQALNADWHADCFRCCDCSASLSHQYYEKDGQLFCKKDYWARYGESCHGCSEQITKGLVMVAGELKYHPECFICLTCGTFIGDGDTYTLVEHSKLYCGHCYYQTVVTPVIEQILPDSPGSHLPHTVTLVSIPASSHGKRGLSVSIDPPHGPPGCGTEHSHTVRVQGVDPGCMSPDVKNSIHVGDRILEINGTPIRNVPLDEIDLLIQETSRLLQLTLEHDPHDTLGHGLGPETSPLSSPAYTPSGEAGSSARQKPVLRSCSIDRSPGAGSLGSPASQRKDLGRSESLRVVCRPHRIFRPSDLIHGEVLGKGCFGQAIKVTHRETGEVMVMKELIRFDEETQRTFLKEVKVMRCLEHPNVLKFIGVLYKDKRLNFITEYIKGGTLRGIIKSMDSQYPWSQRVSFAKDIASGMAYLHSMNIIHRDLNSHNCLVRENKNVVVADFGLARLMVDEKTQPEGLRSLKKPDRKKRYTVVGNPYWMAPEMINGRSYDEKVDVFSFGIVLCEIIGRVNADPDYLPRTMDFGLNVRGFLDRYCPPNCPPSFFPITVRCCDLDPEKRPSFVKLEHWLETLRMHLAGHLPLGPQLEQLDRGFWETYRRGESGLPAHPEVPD
Serine/threonine-protein kinase/endoribonuclease IRE1 (Homo sapiens), sequence (O75460 19-977 limits assumed): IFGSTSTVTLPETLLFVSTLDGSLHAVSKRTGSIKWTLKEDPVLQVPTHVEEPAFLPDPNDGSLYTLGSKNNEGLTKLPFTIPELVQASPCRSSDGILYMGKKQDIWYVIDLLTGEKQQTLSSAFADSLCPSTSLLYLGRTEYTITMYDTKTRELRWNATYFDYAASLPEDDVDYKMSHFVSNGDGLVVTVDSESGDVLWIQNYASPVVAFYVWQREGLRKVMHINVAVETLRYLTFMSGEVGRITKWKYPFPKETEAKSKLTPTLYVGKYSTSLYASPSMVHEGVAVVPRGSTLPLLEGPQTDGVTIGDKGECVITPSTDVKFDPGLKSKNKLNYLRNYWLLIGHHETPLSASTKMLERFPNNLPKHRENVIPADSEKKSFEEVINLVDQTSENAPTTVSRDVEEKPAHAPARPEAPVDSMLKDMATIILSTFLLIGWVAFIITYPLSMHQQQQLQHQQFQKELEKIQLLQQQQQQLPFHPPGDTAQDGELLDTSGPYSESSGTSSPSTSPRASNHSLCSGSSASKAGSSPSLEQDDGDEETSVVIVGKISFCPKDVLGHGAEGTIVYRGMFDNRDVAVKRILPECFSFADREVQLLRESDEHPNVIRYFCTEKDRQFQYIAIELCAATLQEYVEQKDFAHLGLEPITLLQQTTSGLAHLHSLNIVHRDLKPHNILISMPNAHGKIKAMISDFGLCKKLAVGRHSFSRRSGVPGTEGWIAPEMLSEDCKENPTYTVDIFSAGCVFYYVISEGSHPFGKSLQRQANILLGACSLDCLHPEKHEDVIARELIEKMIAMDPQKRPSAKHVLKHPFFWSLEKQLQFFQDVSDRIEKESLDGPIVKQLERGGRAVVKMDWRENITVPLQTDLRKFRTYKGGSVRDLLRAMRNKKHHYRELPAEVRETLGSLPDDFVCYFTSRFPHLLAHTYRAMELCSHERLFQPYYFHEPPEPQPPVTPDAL
Tyrosine-protein kinase Lyn, sequence (P07948 2-512 limits assumed): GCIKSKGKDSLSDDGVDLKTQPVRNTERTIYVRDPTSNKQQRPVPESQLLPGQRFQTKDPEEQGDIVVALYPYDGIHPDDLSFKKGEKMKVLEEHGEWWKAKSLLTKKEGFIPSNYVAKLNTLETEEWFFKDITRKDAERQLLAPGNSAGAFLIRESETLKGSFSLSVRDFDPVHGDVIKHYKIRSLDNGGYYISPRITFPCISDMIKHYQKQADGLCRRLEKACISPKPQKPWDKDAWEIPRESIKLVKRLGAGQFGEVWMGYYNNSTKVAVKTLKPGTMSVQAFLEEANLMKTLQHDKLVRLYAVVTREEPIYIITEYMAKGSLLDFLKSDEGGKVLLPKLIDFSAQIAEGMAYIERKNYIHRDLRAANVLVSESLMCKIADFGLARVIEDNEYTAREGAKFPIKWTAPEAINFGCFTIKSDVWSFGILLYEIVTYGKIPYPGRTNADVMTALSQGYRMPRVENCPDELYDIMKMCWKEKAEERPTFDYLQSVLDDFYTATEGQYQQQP

As usually defined, the inhibition is the change of the read-out against control, counted positive when it falls. Usually residual activity stands for the share of the control activity or signal that is left under treatment. A higher residual activity goes with a small loss of activity. With `CCN1CCN(Cc2ccc(NC(=O)c3ccc(C)c(/C=C/c4cnc5[nH]ccc5c4OC)c3)cc2C(F)(F)F)CC1`, the inhibition in test [1] was 21.5%; in [2], 14.7%. This compound returned a % of control in test [3] of 0.45%. Also, the residual activity stood at 3.7% in test [4] and 26% in [5].

As to `CCN1CCN(Cc2ccc(NC(=O)c3ccc(C)c(Oc4ccnc5[nH]ccc45)c3)cc2C(F)(F)F)CC1`, the inhibition entry in test [6], in test [9] and in test [10] was “inactive” each time. In addition, the inhibition stood at 0% in [7] and 15.9% in test [8].

With `CNc1cc(Oc2cc(C(=O)Nc3cc(N4CCN(C)CC4)cc(C(F)(F)F)c3)ccc2C)ncn1`, the inhibition is 16.6% in [11] and 2.5% in test [12].
